Blank lines part the entries; values can stand above or below the compound they belong to.
Experiment: solvent given as SMILES

Compound: CN(C)c1ccc(/C=C/C=C2\CC/C(=C\c3ccc(N(C)C)cc3)C2=O)cc1
absorption maximum (in C1CCOC1): 479 nm
absorption maximum (in CC#N): 478 nm
absorption maximum (in CC(C)=O): 474 nm
absorption maximum (in CC(C)O): 493 nm
absorption maximum (in CCCCCC): 435 nm
absorption maximum (in CCCCO): 499 nm
absorption maximum (in CCCCOC(C)=O): 468 nm
absorption maximum (in CCCO): 499 nm
absorption maximum (in CCO): 498 nm
absorption maximum (in CCOC(=O)c1ccccc1): 481 nm
absorption maximum (in CCOC(C)=O): 464 nm
absorption maximum (in CCOCC): 448 nm
absorption maximum (in CN(C)C=O): 486 nm
absorption maximum (in CO): 500 nm
absorption maximum (in CS(C)=O): 496 nm
absorption maximum (in Cc1ccccc1): 475 nm
absorption maximum (in ClC(Cl)(Cl)Cl): 449 nm
absorption maximum (in ClC(Cl)Cl): 486 nm
absorption maximum (in ClCCl): 484 nm
absorption maximum (in Clc1ccccc1Cl): 488 nm
absorption maximum (in S=C=S): 489 nm
absorption maximum (in c1ccccc1): 475 nm
absorption maximum (in c1ccncc1): 488 nm

Compound: CCN1C(=CC2=C([O-])C(=CC3=[N+](CC)c4ccccc4C3(C)C)C2=O)C(C)(C)c2ccccc21
absorption maximum (in CO): 628 nm
absorption maximum (in ClC(Cl)Cl): 635 nm
absorption maximum (in ClCCl): 637 nm

Compound: CC(C)(C)c1ccc2c(c1)c1cc(C(C)(C)C)ccc1n2-c1ccc(N(c2ccc(-c3ccc(-c4ccc(-c5ccc(N(c6ccc(-n7c8ccc(C(C)(C)C)cc8c8cc(C(C)(C)C)ccc87)cc6)c6ccc(-n7c8ccc(C(C)(C)C)cc8c8cc(C(C)(C)C)ccc87)cc6)cc5)s4)s3)cc2)c2ccc(-n3c4ccc(C(C)(C)C)cc4c4cc(C(C)(C)C)ccc43)cc2)cc1
absorption maximum (in ClCCl): 418 nm

Compound: O=C(O)CC[N+]1=c2cc3c(cc2CCC1)=Cc1c(c2cc4c5c(c2oc1=O)CCCN5CCC4)O3
absorption maximum (in CC#N): 619 nm
absorption maximum (in CO): 617 nm
absorption maximum (in ClCCl): 637 nm
absorption maximum (in O): 608 nm

Compound: COCCOc1cc(C=O)c(OCCOC)cc1C=O
absorption maximum (in CC(C)(C)O): 393 nm
absorption maximum (in CC(C)CO): 391 nm
absorption maximum (in CC(C)O): 390 nm
absorption maximum (in CCCCO): 363 nm
absorption maximum (in CCCO): 363 nm
absorption maximum (in CCO): 362 nm
absorption maximum (in CN(C)C=O): 392 nm
absorption maximum (in CNC=O): 351 nm
absorption maximum (in CO): 353 nm
absorption maximum (in NC=O): 354 nm
absorption maximum (in O): 391 nm

Compound: CCCCCCC1(CCCCCC)c2cc(-c3nc(-c4ccc5c(c4)C(CCCCCC)(CCCCCC)c4cc(-n6c7ccc(C(C)(C)C)cc7c7cc(C(C)(C)C)ccc76)ccc4-5)nc(-c4ccc5c(c4)C(CCCCCC)(CCCCCC)c4cc(-n6c7ccc(C(C)(C)C)cc7c7cc(C(C)(C)C)ccc76)ccc4-5)n3)ccc2-c2ccc(-n3c4ccc(C(C)(C)C)cc4c4cc(C(C)(C)C)ccc43)cc21
absorption maximum (in C1CCOC1): 382 nm

Compound: N#Cc1cc(-n2c3ccccc3c3ccccc32)nc(-n2c3ccccc3c3ccccc32)n1
absorption maximum (in Cc1ccccc1): 342 nm

Compound: O=C(c1cc(F)c(O)cc1F)c1cc(F)c(O)cc1F
absorption maximum (in CCO): 306 nm

Compound: C(=C\c1ccnc2ccccc12)/c1ccc(/C=C/c2ccnc3ccccc23)cc1
absorption maximum (in C1CCCCC1): 364 nm
absorption maximum (in C1COCCO1): 370 nm
absorption maximum (in CC#N): 370 nm
absorption maximum (in CC(C)=O): 371 nm
absorption maximum (in CC(C)O): 374 nm
absorption maximum (in CCCO): 374 nm
absorption maximum (in CCO): 374 nm
absorption maximum (in CN(C)C=O): 378 nm
absorption maximum (in CO): 374 nm
absorption maximum (in CS(C)=O): 382 nm
absorption maximum (in ClC(Cl)Cl): 370 nm
absorption maximum (in ClCCl): 370 nm
absorption maximum (in OCCO): 382 nm

Compound: O=S1(=O)C2=C(c3ccc(-c4ccc(N(c5ccccc5)c5ccccc5)cc4)cc31)C1(C3=C(c4ccccc41)S(=O)(=O)c1cc(-c4ccc(N(c5ccccc5)c5ccccc5)cc4)ccc13)c1ccccc12
absorption maximum (in C1CCOC1): 431 nm
absorption maximum (in CC#N): 430 nm
absorption maximum (in CCCCCC): 424 nm
absorption maximum (in Cc1ccccc1): 438 nm
absorption maximum (in ClCCl): 438 nm

Compound: Cc1cc2cc(N3c4ccccc4Oc4ccccc43)ccc2c(=O)o1
absorption maximum (in Cc1ccccc1): 395 nm

Compound: CC(C)(C)c1cc(C[n+]2ccc(-c3cc[n+](Cc4cc(C(C)(C)C)cc(C(C)(C)C)c4)cc3)cc2)cc(C(C)(C)C)c1
absorption maximum (in CC#N): 259 nm

Compound: CCOc1cc(C=C2c3ccccc3-c3ccccc32)c(OCC)cc1C=C1c2ccccc2C=Cc2ccccc21
absorption maximum (in C1CCOC1): 395 nm

Compound: CCOC(=O)c1cc(C(=O)OCC)c2c(C)ccc(O)c2n1
absorption maximum (in CCO): 369 nm

Compound: COc1ccc(N(c2ccc(OC)cc2)c2cc(N(c3ccc(OC)cc3)c3ccc(OC)cc3)c3ccc4cc(C(C)(C)C)cc5ccc2c3c54)cc1
absorption maximum (in ClCCl): 434 nm

Compound: CCN=C=S
absorption maximum (in CCCCCC): 250 nm

Compound: O=C1NC(=O)c2ccc3c4ccc5c6c(ccc(c7ccc1c2c73)c64)C(=O)N(c1ccc(Cl)cc1)C5=O
absorption maximum (in CN(C)C=O): 526 nm

Compound: COc1cc2c(cc1OC)C1=C[C@H](c3ccccc3)C3(C(C#N)=C(C#N)N1CC2)c1cc(Cl)ccc1-c1ccc(Cl)cc13
absorption maximum (in ClCCl): 310 nm

Compound: c1ccc(-n2c(-c3ccc(-c4ccc(-c5ccc(-c6nc7c8ccccc8c8ccccc8c7n6-c6ccccc6)cc5)cc4)cc3)nc3ccccc32)cc1
absorption maximum (in C1CCOC1): 341 nm
absorption maximum (in C1COCCO1): 344 nm
absorption maximum (in CC#N): 337 nm
absorption maximum (in CCCCCC): 341 nm
absorption maximum (in CCCCOCCCC): 340 nm
absorption maximum (in CCN(CC)CC): 341 nm
absorption maximum (in CCOC(C)=O): 339 nm
absorption maximum (in CCOCC): 340 nm
absorption maximum (in CN(C)C=O): 342 nm
absorption maximum (in Cc1ccccc1): 345 nm
absorption maximum (in ClC(Cl)Cl): 340 nm
absorption maximum (in ClC=C(Cl)Cl): 343 nm
absorption maximum (in ClCCl): 340 nm

Compound: COC(=O)C(NC(=O)CCNc1cccc2ccccc12)C(C)C (centres undefined)
absorption maximum (in CCO): 330 nm

Compound: N#Cc1ccc2[nH]ccc2c1
absorption maximum (in C1COCCO1): 274.85 nm
absorption maximum (in CC#N): 275 nm
absorption maximum (in O): 275 nm

Compound: O=C1Cc2cc3c(cc2CCCc2ccc(cc2)CCC3)CC(=O)Cc2ccc(c3nsnc23)C1
absorption maximum (in C1CCCCC1): 401 nm
absorption maximum (in CC#N): 404 nm
absorption maximum (in ClC(Cl)Cl): 404 nm

Compound: CN(C)c1ccc(/C=C/c2ccc([N+](=O)[O-])c(O)c2)cc1
absorption maximum (in C1COCCO1): 448 nm

Compound: FC(F)(F)c1ccc(-n2c(-c3ccc(N(c4ccc(-c5ccc(N(c6ccc(-c7nc8c9ccccc9c9ccccc9c8n7-c7ccc(C(F)(F)F)cc7)cc6)c6ccc(-c7nc8c9ccccc9c9ccccc9c8n7-c7ccc(C(F)(F)F)cc7)cc6)cc5)cc4)c4ccc(-c5nc6c7ccccc7c7ccccc7c6n5-c5ccc(C(F)(F)F)cc5)cc4)cc3)nc3c4ccccc4c4ccccc4c32)cc1
absorption maximum (in ClCCl): 376 nm

Compound: CC(=O)c1ccc2ccc3cccc4ccc1c2c34
absorption maximum (in C1CCOC1): 384 nm
absorption maximum (in CC#N): 382 nm
absorption maximum (in CCCCCC): 384 nm
absorption maximum (in CCO): 383 nm
absorption maximum (in CN(C)C=O): 384 nm
absorption maximum (in CO): 385 nm
absorption maximum (in Cc1ccccc1): 387 nm
absorption maximum (in ClCCl): 385 nm

Compound: CC(=O)[B-]1(C(C)=O)OC(c2ccccc2)=CC(c2ccccc2)=[O+]1
absorption maximum (in CC#N): 377 nm
absorption maximum (in ClC(Cl)(Cl)Cl): 382 nm

Compound: c12c3c4c5c1c1c6c7c2c2c8c3c3c9c4c4c%10c5c5c1c1c6c6c%11c%12c%13c%14c%15c%16c%17c%14c%14c%18c%13c%11c1c1c5c%10c5c(c%14c%10c%17c%11c%13c%16c%14c%16c%15c%12c%12c%16c(c2c7c%126)c2c8c3c(c%13c%142)c2c9c4c5c%10c%112)c%181
absorption maximum (in CC1CCCCC1): 470 nm

Compound: CCc1c(C)c2n(c1C)[B-](F)(F)[N+]1=C(c3ccc[nH]3)c3ccccc3C1=C2C
absorption maximum (in C1CCOC1): 604 nm
absorption maximum (in CC#N): 597 nm
absorption maximum (in CCCCCC): 604 nm
absorption maximum (in CO): 599 nm
absorption maximum (in Cc1ccccc1): 609 nm
absorption maximum (in ClCCl): 605 nm

Compound: CN(C)c1ccc(-c2nc3c(c4c2-c2ccc(C#N)cc2CC4)-c2ccc(C#N)cc2CC3)cc1
absorption maximum (in C1CCOC1): 344 nm
absorption maximum (in CC#N): 343 nm
absorption maximum (in CCCCCC): 348 nm
absorption maximum (in CCOC(C)=O): 333 nm
absorption maximum (in CO): 332 nm
absorption maximum (in CS(C)=O): 344 nm
absorption maximum (in Cc1ccccc1): 344 nm
absorption maximum (in ClCCl): 342 nm

Compound: COc1cc(C2=c3c(c4ccc(C(C)(C)C)cc4c4cc(C(C)(C)C)ccc34)=[N+]3C2=Nc2c(-c4cc(OC)c(OC)c(OC)c4)c4c5ccc(C(C)(C)C)cc5c5cc(C(C)(C)C)ccc5c4n2[B-]3(F)F)cc(OC)c1OC
absorption maximum (in Cc1ccccc1): 787 nm

More lines, now with the values ahead:

absorption maximum (in CC#N): 348 nm
Compound: Cc1ccc(-c2ccc(/C=C/c3cccs3)cn2)nc1

absorption maximum (in C1COCCO1): 355 nm
absorption maximum (in CC#N): 357 nm
absorption maximum (in CO): 358 nm
absorption maximum (in ClCCl): 361 nm
Compound: CN(C)c1ncc2nc(C#N)n(Cc3ccccc3)c2n1

absorption maximum (in C1CCOC1): 395 nm
Compound: c1ccc2cc3c(cc2c1)oc1c2oc4cc5ccccc5cc4c2c2ccccc2c31

absorption maximum (in ClCCl): 333 nm
Compound: COc1ccc(-c2cc3c(ccc4sccc43)s2)cc1

absorption maximum (in ClCCl): 348 nm
Compound: C#Cc1ccc(-c2nc(-c3ccc(C#C)s3)nc(-c3ccc(C#C)s3)n2)s1

absorption maximum (in C1CCOC1): 400 nm
Compound: Cc1ccc(-c2cnc3nn4ccccc4c3n2)cc1

absorption maximum (in C1CCCCC1): 416 nm
absorption maximum (in CC#N): 417 nm
absorption maximum (in CO): 416 nm
absorption maximum (in ClCCl): 419 nm
Compound: COc1c2ccccc2c(OC)c2c1c1ccc(C(F)(F)F)cc1n2C

absorption maximum (in ClC(Cl)Cl): 332 nm
Compound: CN(C)c1ccc(-c2ccc(-c3cc(-c4ccccc4)c(-c4ccccc4)c(-c4ccccc4)c3-c3ccccc3)nc2)cc1

absorption maximum (in ClC(Cl)Cl): 336 nm
Compound: COc1ccc2cc(-c3ccccc3CC#N)c(=O)oc2c1

absorption maximum (in C1CCOC1): 286 nm
Compound: F[Si](c1ccccc1)(c1ccccc1)c1cccc2ccccc12

absorption maximum (in ClCCl): 341 nm
Compound: Cc1ccc(-c2ccc(C(=O)NC(C)(C)C)c3c2ccc2c4ccccc4c4ccccc4c23)cc1

absorption maximum (in ClC(Cl)Cl): 410 nm
Compound: COc1ccc(-c2oc3cccc4c5c(-c6ccc(OC)c(OC)c6)c(=N)oc6cccc(c2c34)c65)cc1OC

absorption maximum (in ClCCl): 367 nm
Compound: COc1ccc(N(c2ccc(OC)cc2)c2ccc(-c3ccc(-c4ccc5nc6ccccc6c(=O)n5c4)cc3)cc2)cc1

absorption maximum (in ClCCl): 523 nm
Compound: Cc1ccc(N(c2ccc(C)cc2)c2ccc(Oc3nnc(Cl)nn3)cc2)cc1

Reference: the Deep4Chem optical property database
